Reference: PMC4894917, “Differences in Enzymatic Properties of the Saccharomyces kudriavzevii and Saccharomyces uvarum Alcohol Acetyltransferases and Their Impact on Aroma-Active Compounds Production” (Frontiers in Microbiology, 2016)

How the values were obtained:
SuAtf2p = molecular target: T1, SuAtf2p (Saccharomyces uvarum, UniProt A0ABN8WWD5); assay: acetate ester formation by headspace SPME gas chromatography, cell extract; type: biochemical; settings: acetyl-CoA 0.8 mM, 50 mM potassium phosphate pH 7.5, 10% glycerol
T1 construct: gene SUVZ07G4070; full-length untagged, pG-SuATF2-TDH3p in S. cerevisiae BY4741 atf1 atf2 iah1, cell extract (strain CLpSuATF2); N-terminus MDSLEEY translated from printed primer pGSuATF2f
T1 sequence (A0ABN8WWD5 1-545): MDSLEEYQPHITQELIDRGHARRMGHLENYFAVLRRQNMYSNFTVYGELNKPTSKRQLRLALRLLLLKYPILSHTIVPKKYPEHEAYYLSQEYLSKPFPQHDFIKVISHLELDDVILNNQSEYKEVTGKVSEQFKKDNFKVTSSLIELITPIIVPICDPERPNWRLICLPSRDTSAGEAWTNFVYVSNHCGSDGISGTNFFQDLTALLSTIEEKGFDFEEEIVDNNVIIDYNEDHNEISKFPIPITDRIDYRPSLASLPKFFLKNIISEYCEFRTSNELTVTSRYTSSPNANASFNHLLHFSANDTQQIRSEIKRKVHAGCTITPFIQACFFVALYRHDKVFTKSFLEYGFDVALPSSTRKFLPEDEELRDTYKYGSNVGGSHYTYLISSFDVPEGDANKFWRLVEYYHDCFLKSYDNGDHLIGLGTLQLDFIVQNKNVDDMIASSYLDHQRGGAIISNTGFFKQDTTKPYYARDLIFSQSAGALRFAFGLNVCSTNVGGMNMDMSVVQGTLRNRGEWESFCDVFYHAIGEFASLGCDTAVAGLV

SkAtf2p = molecular target: T2, SkAtf2p (Saccharomyces kudriavzevii, UniProt A0AA35JHW3); assay: as above; type: biochemical; settings: acetyl-CoA 0.8 mM, 50 mM potassium phosphate pH 7.5, 10% glycerol
T2 construct: gene SKDI07G4300; full-length untagged, pG-SkATF2-TDH3p in S. cerevisiae BY4741 atf1 atf2 iah1, cell extract (strain CLpSkATF2); N-terminus MDDIEEY translated from printed primer pGSkATF2f
T2 sequence (A0AA35JHW3 1-535): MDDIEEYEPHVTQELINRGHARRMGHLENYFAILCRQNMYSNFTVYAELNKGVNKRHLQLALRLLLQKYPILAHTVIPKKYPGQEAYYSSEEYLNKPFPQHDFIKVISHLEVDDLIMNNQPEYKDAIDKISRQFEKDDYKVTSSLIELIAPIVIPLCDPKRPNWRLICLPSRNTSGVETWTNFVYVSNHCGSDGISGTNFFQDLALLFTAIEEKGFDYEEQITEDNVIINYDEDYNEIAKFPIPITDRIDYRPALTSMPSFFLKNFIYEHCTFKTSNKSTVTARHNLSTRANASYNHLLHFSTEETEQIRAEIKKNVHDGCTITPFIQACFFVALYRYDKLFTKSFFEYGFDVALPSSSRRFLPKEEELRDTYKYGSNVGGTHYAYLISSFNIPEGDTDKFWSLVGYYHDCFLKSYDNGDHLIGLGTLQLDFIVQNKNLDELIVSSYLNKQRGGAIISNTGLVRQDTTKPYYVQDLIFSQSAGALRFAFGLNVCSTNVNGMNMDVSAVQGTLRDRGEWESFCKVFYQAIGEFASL

ScAtf2p = molecular target: T3, ScAtf2p (Saccharomyces cerevisiae, UniProt P53296); assay: as above; type: biochemical; settings: acetyl-CoA 0.8 mM, 50 mM potassium phosphate pH 7.5, 10% glycerol
T3 construct: gene ATF2; full-length untagged, pG-ScATF2-TDH3p in S. cerevisiae BY4741 atf1 atf2 iah1, cell extract (strain CLpScATF2)
T3 sequence (P53296 1-535): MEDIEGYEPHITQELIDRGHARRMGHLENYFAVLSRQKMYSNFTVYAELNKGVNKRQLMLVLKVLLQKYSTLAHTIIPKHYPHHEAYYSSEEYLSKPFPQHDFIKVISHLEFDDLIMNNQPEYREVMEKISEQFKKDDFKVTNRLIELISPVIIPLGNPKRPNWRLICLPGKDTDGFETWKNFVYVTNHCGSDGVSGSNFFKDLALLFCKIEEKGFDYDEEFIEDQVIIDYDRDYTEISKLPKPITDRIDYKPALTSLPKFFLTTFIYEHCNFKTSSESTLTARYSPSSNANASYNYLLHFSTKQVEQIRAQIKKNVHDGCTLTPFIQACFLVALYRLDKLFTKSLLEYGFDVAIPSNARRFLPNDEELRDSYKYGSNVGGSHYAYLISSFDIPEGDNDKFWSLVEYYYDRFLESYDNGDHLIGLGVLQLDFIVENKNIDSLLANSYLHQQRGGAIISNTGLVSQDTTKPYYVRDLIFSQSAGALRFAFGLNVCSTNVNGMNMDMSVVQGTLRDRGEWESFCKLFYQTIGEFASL

[1] = substrate: CC(C)CCO; assay: isoamyl acetate formation by headspace SPME gas chromatography, cell extract; type: biochemical, Saccharomyces uvarum; settings: acetyl-CoA 0.8 mM, 50 mM potassium phosphate pH 7.5, 10% glycerol, isoamyl alcohol 0.01-100 mM
Source text: isoamyl acetate formation by headspace SPME gas chromatography, cell extract on SuAtf1p

[2] = substrate: CC(C)CCO; assay: as above; type: biochemical, Saccharomyces cerevisiae; settings: acetyl-CoA 0.8 mM, 50 mM potassium phosphate pH 7.5, 10% glycerol, isoamyl alcohol 0.01-100 mM
Source text: isoamyl acetate formation by headspace SPME gas chromatography, cell extract on ScAtf1p

In the case of `OCCc1ccccc1` [2-phenylethanol], the “acetate ester formation by headspace SPME gas chromatography, cell extract” value (from here on “acetate ester formation”) (SuAtf2p; 30 mM alcohol) is reported as “the proportion of the enzyme activity of SkAtf2p and SuAtf2p to 2-phenylethanol”, the “acetate ester formation” value (SkAtf2p; 30 mM alcohol) is reported as “the proportion of the enzyme activity of SkAtf2p and SuAtf2p to 2-phenylethanol” and the “acetate ester formation” value (ScAtf2p; 30 mM alcohol) is reported as “all the strains that expressed the individual ATF1 and ATF2 orthologs exhibited activities”.

In the case of `CC(C)CCO` [isoamyl alcohol], the “acetate ester formation” value (SuAtf2p; 100 mM alcohol) is reported as “enzymes Atf2 showed considerably stronger activity toward isoamyl alcohol than the other substrates”, the “acetate ester formation” value (SkAtf2p; 100 mM alcohol) is reported as “enzymes Atf2 showed considerably stronger activity toward isoamyl alcohol than the other substrates” and the “acetate ester formation” value (ScAtf2p; 100 mM alcohol) is reported as “enzymes Atf2 showed considerably stronger activity toward isoamyl alcohol than the other substrates”.

B1: SuAtf1p (Saccharomyces uvarum) (protein)
chain: MNTYSEKTSLVQDECLAKMIQNGHSRRMGSVEDLYAALNRQKLYRNFSTYSELNDYCTKDQLTLALRNICLKNPTLLHIVLPARWPDYENYYLSTEYYSQPHPKHDYISVLPELKFDGVILNEQPEHNALMKQILQELKDNNGSYTAKVFKLTTALTIPYAGPTSPTWRLICLPEEGHTDKWKKFIFLSNHCMCDGRSSIHFFQDLRDELNNMKTPPKKLDYIFQYEKDYQLLRKLPEPIENMIDFRPPYMFIPKSLISGFIYSHLRFSSKGVCTRMDEIEKSDEVVTEIITISPSEFQKIKAIIKSNIPGKCTITPFLEVCWFVSLHKWGKFFKPLKFEWLTDVFIPADCRSLLPEDEEVRAMYRYGANVGFVDFTPWISEFNMNDSKENFWPLIAHYHEVISGAIKDKKHLNGLGFNIQGLVQKYVNIDKVMRDRALGKSRGGTLLSNVGIFHQSEETDSRYSIRDLAFGQFQGSWHQAFSLGVCSTNVKGMNIVISSTKNVVGSQESLEELCAMYKALLLNP
notes: full-length untagged, pG-SuATF1-TDH3p in S. cerevisiae BY4741 atf1 atf2 iah1, cell extract (strain CLpSuATF1); N-terminus MNTYSE translated from printed primer pGSuATF1f
Work on B1 yielded a Km [1] of 92.9 ± 10.9 mM and a Vmax [1] of 0.00569 µmol/min/mg.

B2: ScAtf1p (Saccharomyces cerevisiae S288C) (protein)
chain: MNEIDEKNQAPVQQECLKEMIQNGHARRMGSVEDLYVALNRQNLYRNFCTYGELSDYCTRDQLTLALREICLKNPTLLHIVLPTRWPNHENYYRSSEYYSRPHPVHDYISVLQELKLSGVVLNEQPEYSAVMKQILEEFKNSKGSYTAKIFKLTTTLTIPYFGPTGPSWRLICLPEEHTEKWKKFIFVSNHCMSDGRSSIHFFHDLRDELNNIKTPPKKLDYIFKYEEDYQLLRKLPEPIEKVIDFRPPYLFIPKSLLSGFIYNHLRFSSKGVCMRMDDVEKTDDVVTEIINISPTEFQAIKANIKSNIQGKCTITPFLHVCWFVSLHKWGKFFKPLNFEWLTDIFIPADCRSQLPDDDEMRQMYRYGANVGFIDFTPWISEFDMNDNKENFWPLIEHYHEVISEALRNKKHLHGLGFNIQGFVQKYVNIDKVMCDRAIGKRRGGTLLSNVGLFNQLEEPDAKYSICDLAFGQFQGSWHQAFSLGVCSTNVKGMNIVVASTKNVVGSQESLEELCSIYKALLLGP
notes: full-length untagged, pG-ScATF1-TDH3p in S. cerevisiae BY4741 atf1 atf2 iah1, cell extract (strain CLpScATF1)
For B2, the Km [2] was 32.2 ± 2.2 mM and the Vmax [2] was 0.00999 µmol/min/mg.
